Results as given in paper PMC10154249, “Unique progerin C-terminal peptide ameliorates Hutchinson–Gilford progeria syndrome phenotype by rescuing BUBR1” (Nature Aging, 2023).

Experiments:
BUBR1 mRNA = BUBR1 mRNA stability assay with Actinomycin D; assay type: cell-based, human; conditions: HGADFN003 cells, UPCP together with Act D
Protocol: RNA preparation was performed as described. Total RNA was extracted using Trizol reagent (TaKaRa) following the manufacturer’s instructions. cDNA was generated with M-MLV reverse transcriptase (Promega, catalog no. M170B). Reverse transcription with PCR (RT-PCR) was performed with SYBR Green Real-Time PCR Master Mix (TaKaRa). RT-PCR was carried out on a QuantStudio 3 Real-Time-PCR Instrument (ABI). Data were analyzed and further processed in QuantStuido Design and Analysis Software and GraphPad Prism v.7. Fold change in gene expression over control samples was calculated using the 2^–ΔΔCt method, where β-actin Ct values were used as an internal control. The primer sequences for PCR, synthesized by Comate Bioscience, were as follows: […]

BUBR1–PTBP1 binding = experiment: CoIP of PTBP1 and BUBR1 in HEK-293T cells; assay type: cell-based; conditions: UPCP 18 μM, 48 h
Protocol: Detailed descriptions of CoIP were described previously[55],[56]. Cells were harvested and washed three times in cold PBS, then lysed in CoIP buffer (25 mM Tris-HCl (pH 7.5), 150 mM KCl, 5 mM EDTA, and 0.5% NP-40) plus protease inhibitor cocktail tablet (Roche). Incubate on ice and shock lysates on the vortex shaker 15 times for 30 s each. Microcentrifuge in 12,000g for 15 min at 4 °C, collect the supernatant, and incubate with 3 μg primary antibodies with gentle shaking overnight at 4 °C, followed by adding 20–40 μl Pure Proteome Protein A/G Mix Magnetic Beads (Millipore, catalog no. […]02) for 3 h. Wash the beads three times with 1 ml CoIP buffer for 8 min each, resuspend in 50 μl 1× loading buffer, and incubate at 100 °C for 8 min. Throw beads away and analyze by immunoblotting.

IMR90 cells = experiment: Cell survival rate analysis in IMR90 cells; assay type: cell-based, human; conditions: Fig. 5o, 48h
Protocol: Cell viability was assessed using the Cell Counting Kit-8 (CCK8) (APE, catalog no. k1018). The cells were plated in triplicate in 96-well plates (typically 10,000 cells per 100 μl per well) and were incubated with fresh medium for 24 h. Then, the cells were incubated with different concentrations (0 μM, 10 μM, 20 μM, 30 μM) of UPCP for 0 h, 24 h, 48 h or 72 h. CCK8 solution (10 μl) was added to the well for a 2 h incubation at 37 °C. Absorbance was measured at 450 nm with a 96-well plate reader (Tecan Infinite M NANO^+). Data were analyzed and further processed in i-control v.2.0 and GraphPad Prism v.7.

[1] = tested on: BubR1 in Lmna^G609G/G609G mice; experiment: IHC of BubR1 in tissues of Lmna^G609G/G609G mice; assay type: in vivo, mouse; set-up: key to BubR1 IHC score: intensity score (0-3) × positive-cell score (0-4); range 0-12; conditions: 20 mg kg^–1 i.p. every other day
Protocol: For UPCP injection, 14-day-old Lmna^G609G/G609G mice were injected intraperitoneally with either PBS or UPCP (20 mg kg^–1, every other day) and wild-type mice were injected with PBS. All phenotypic analyses were performed after 12 weeks of treatment with UPCP. Bodyweight and lifespan were monitored after UPCP treatment. The survival rate was analyzed by the Kaplan–Meier method. We only included mice that were of sufficient bodyweight at the start of the experiment, typically at least 80% of the average littermate weight of the same sex and genotype. All animals meeting criteria for inclusion were then divided randomly into three groups according to genotype (Lmna^+/+, Lmna^G609G/G609G-Mock and Lmna^G609G/G609G-UPCP).
For histological analyses, mice of the indicated genotypes were perfused with PBS, then with 4% paraformaldehyde (PFA). Whole organs were incubated in 4% PFA at 4 °C for 16 h. All samples were paraffin embedded and sectioning by Servicebio. Subsequently, the tissues were deparaffinized and rehydrated before hematoxylin-eosin (HE) or Masson staining or immunohistochemistry (IHC). HE staining was performed using an HE Kit (Absin, catalog no. abs9217), and Masson staining was performed using Masson’s Trichrome Stain Kit (Absin, catalog no. abs9347) according to the manufacturer’s instructions. The thickness of the layers or the areas of fibrosis in the tissues were calculated using ImageJ software by a blinded investigator. For IHC, the sections were completed by the Servicebio. The images were acquired by a microscope (Leica DMi8) and analyzed with Leica Application Suite X v.3.6.0.24 (Leica). For BubR1, cytoplasmic staining in cells was scored on the intensity of staining and the proportion of positive cells by a blinded investigator. The intensity of the staining was graded as 0 (negative, no color), 1 (low positive, light yellow), 2 (positive, brown yellow) or 3 (high positive, brown), and the number of positive cells was graded as 0 (<5%), 1 (5–25%), 2 (25–50%), 3 (51–75%) or 4 (>75%). The final score was defined as staining number score multiplied by staining color score. For lamin B1, p21 or IL-6, the proportion of positive cells was used to quantify the expression of protein in tissues by a blinded investigator.

For “H-YGRKKRRQRRRYNLRSRTVLCGTCGQPADKASASGSGAQSPQNCSIM-OH (cysteines drawn unpaired) [UPCP, unique progerin C-terminal peptide]”, the “BUBR1 mRNA level with Act D” value (BUBR1 mRNA) was “mRNA levels of BUBR1 were significantly increased”, the “binding of BUBR1 to PTBP1” value (BUBR1–PTBP1 binding) was “did not block the binding of BUBR1 to other proteins such as PTBP1” and the “Cell survival rate analysis (UPCP-OD/Mock-OD)” value (“Cell survival rate analysis” for short) (IMR90 cells; 10μM, UPCP-0μM = 1, P=0.1549, replicate 1) was 0.9983. The “Cell survival rate analysis” value (IMR90 cells; 10μM, UPCP-0μM = 1, P=0.1549, replicate 2) was 1.052, the “Cell survival rate analysis” value (IMR90 cells; 10μM, UPCP-0μM = 1, P=0.1549, replicate 3) was 1.032 and the “Cell survival rate analysis” value (IMR90 cells; 20μM, UPCP-0μM = 1, P=0.2306, replicate 1) was 1.032. The “Cell survival rate analysis” value (IMR90 cells; 20μM, UPCP-0μM = 1, P=0.2306, replicate 2) was 1.043, the “Cell survival rate analysis” value (IMR90 cells; 20μM, UPCP-0μM = 1, P=0.2306, replicate 3) was 1.31 and the “Cell survival rate analysis” value (IMR90 cells; 30μM, UPCP-0μM = 1, P=0.4981, replicate 1) was 0.9716. For the same substance, the “Cell survival rate analysis” value (IMR90 cells; 30μM, UPCP-0μM = 1, P=0.4981, replicate 2) was 1.072, the “Cell survival rate analysis” value (IMR90 cells; 30μM, UPCP-0μM = 1, P=0.4981, replicate 3) was 1.021 and the “BubR1 IHC score” value ([1]; aorta, No. 1) was 7. The “BubR1 IHC score” value ([1]; aorta, No. 2) was 8.4, the “BubR1 IHC score” value ([1]; aorta, No. 3) was 12 and the “BubR1 IHC score” value ([1]; aorta, No. 4) was 8.6. The “BubR1 IHC score” value ([1]; aorta, No. 5) was 8, the “BubR1 IHC score” value ([1]; aorta, No. 6) was 6 and the “BubR1 IHC score” value ([1]; lung, No. 1) was 1. For the same substance, the “BubR1 IHC score” value ([1]; lung, No. 2) was 2, the “BubR1 IHC score” value ([1]; lung, No. 3) was 2.4 and the “BubR1 IHC score” value ([1]; lung, No. 4) was 1.2. For the same substance, the “BubR1 IHC score” value ([1]; lung, No. 5) was 1.4, the “BubR1 IHC score” value ([1]; lung, No. 6) was 1.2 and the “BubR1 IHC score” value ([1]; skin, No. 1) was 10.4. For the same substance, the “BubR1 IHC score” value ([1]; skin, No. 2) was 8, the “BubR1 IHC score” value ([1]; skin, No. 3) was 5.6 and the “BubR1 IHC score” value ([1]; skin, No. 4) was 7.2. For the same substance, the “BubR1 IHC score” value ([1]; skin, No. 5) was 12, the “BubR1 IHC score” value ([1]; skin, No. 6) was 12 and the “BubR1 expression” value ([1]; skin, esophagus, lung and spleen) was “increased the expression of BubR1”. For the same substance, the “BubR1 IHC score” value ([1]; spleen, No. 1) was 7.6, the “BubR1 IHC score” value ([1]; spleen, No. 2) was 6.8 and the “BubR1 IHC score” value ([1]; spleen, No. 3) was 6. For the same substance, the “BubR1 IHC score” value ([1]; spleen, No. 4) was 7.8, the “BubR1 IHC score” value ([1]; spleen, No. 5) was 7.6 and the “BubR1 IHC score” value ([1]; spleen, No. 6) was 7.2.
